Data from the NIST ThermoML archive (doi:10.1021/je0497247).
Numbers after ± are expanded uncertainties.

Assays:
[1] = wn = mass fraction of the nth substance listed; conditions: 100 kPa, Liquid; for mass density: Pycnometric method; for viscosity: Capillary tube (Ostwald / Ubbelohde) method
[2] = 100 kPa, Liquid; for viscosity: Capillary tube (Ostwald / Ubbelohde) method; for mass density: Pycnometric method

O=C(O)c1ccccc1 [benzoic acid] + O
thermal conductivity ([1]; 373 K, w1 = 0.1): 0.659 ± 0.023 W/m/K | thermal conductivity ([1]; 374.6 K, w1 = 0.05): 0.671 ± 0.023 W/m/K | mass density ([1]; 379.1 K, w1 = 0.1): 974.1 ± 0.9 kg/m3 | mass density ([1]; 379.6 K, w1 = 0.05): 963.7 ± 0.8 kg/m3 | viscosity ([1]; 380.6 K, w1 = 0.1): 0.319 ± 0.004 mPa·s | viscosity ([1]; 381.1 K, w1 = 0.05): 0.288 ± 0.003 mPa·s | thermal conductivity ([1]; 391 K, w1 = 0.2): 0.649 ± 0.022 W/m/K | mass density ([1]; 392.9 K, w1 = 0.1): 961 ± 0.9 kg/m3 | thermal conductivity ([1]; 393.6 K, w1 = 0.05): 0.675 ± 0.023 W/m/K | thermal conductivity ([1]; 393.6 K, w1 = 0.4): 0.575 ± 0.02 W/m/K | thermal conductivity ([1]; 393.9 K, w1 = 0.8): 0.199 ± 0.008 W/m/K | thermal conductivity ([1]; 394.2 K, w1 = 0.1): 0.662 ± 0.023 W/m/K | mass density ([1]; 394.6 K, w1 = 0.05): 951.9 ± 0.8 kg/m3 | viscosity ([1]; 395.9 K, w1 = 0.1): 0.272 ± 0.003 mPa·s | viscosity ([1]; 397.6 K, w1 = 0.05): 0.256 ± 0.003 mPa·s | viscosity ([1]; 400.3 K, w1 = 1): 1.372 ± 0.037 mPa·s | mass density ([1]; 400.3 K, w1 = 0.2): 963.5 ± 1 kg/m3 | mass density ([1]; 400.8 K, w1 = 0.4): 988.8 ± 1.4 kg/m3 | mass density ([1]; 400.9 K, w1 = 0.8): 1050.1 ± 2.4 kg/m3 | mass density ([1]; 401.3 K, w1 = 1): 1089.5 ± 3 kg/m3 | mass density ([1]; 401.6 K, w1 = 0.6): 1013.8 ± 1.9 kg/m3 | viscosity ([1]; 401.8 K, w1 = 0.2): 0.329 ± 0.004 mPa·s | viscosity ([1]; 402.3 K, w1 = 0.4): 0.501 ± 0.008 mPa·s | viscosity ([1]; 402.4 K, w1 = 0.8): 0.931 ± 0.022 mPa·s | viscosity ([1]; 403.1 K, w1 = 0.6): 0.708 ± 0.013 mPa·s | thermal conductivity ([1]; 406.8 K, w1 = 1): 0.139 ± 0.006 W/m/K | thermal conductivity ([1]; 409.2 K, w1 = 0.2): 0.65 ± 0.022 W/m/K | thermal conductivity ([1]; 409.2 K, w1 = 0.4): 0.571 ± 0.02 W/m/K | viscosity ([1]; 409.3 K, w1 = 1): 1.238 ± 0.032 mPa·s | mass density ([1]; 410.3 K, w1 = 1): 1080.2 ± 3.2 kg/m3 | thermal conductivity ([1]; 410.9 K, w1 = 0.1): 0.67 ± 0.023 W/m/K | mass density ([1]; 412.1 K, w1 = 0.1): 945.4 ± 0.9 kg/m3 | thermal conductivity ([1]; 413.2 K, w1 = 0.8): 0.197 ± 0.008 W/m/K | thermal conductivity ([1]; 413.3 K, w1 = 0.05): 0.676 ± 0.023 W/m/K | mass density ([1]; 413.4 K, w1 = 0.05): 935.5 ± 0.9 kg/m3 | mass density ([1]; 413.8 K, w1 = 0.2): 950.8 ± 1.1 kg/m3 | mass density ([1]; 414.8 K, w1 = 0.4): 975.1 ± 1.4 kg/m3 | mass density ([1]; 414.8 K, w1 = 0.8): 1035 ± 2.4 kg/m3 | viscosity ([1]; 415.1 K, w1 = 0.1): 0.236 ± 0.003 mPa·s | mass density ([1]; 415.9 K, w1 = 0.6): 999.2 ± 1.8 kg/m3 | viscosity ([1]; 416.4 K, w1 = 0.05): 0.219 ± 0.003 mPa·s | viscosity ([1]; 416.8 K, w1 = 0.2): 0.274 ± 0.004 mPa·s | viscosity ([1]; 417.8 K, w1 = 0.4): 0.383 ± 0.006 mPa·s | thermal conductivity ([1]; 418 K, w1 = 0.2): 0.651 ± 0.022 W/m/K | viscosity ([1]; 418.3 K, w1 = 1): 1.117 ± 0.03 mPa·s | viscosity ([1]; 418.8 K, w1 = 0.8): 0.69 ± 0.016 mPa·s | viscosity ([1]; 418.9 K, w1 = 0.6): 0.547 ± 0.011 mPa·s | mass density ([1]; 419.3 K, w1 = 1): 1069.8 ± 3 kg/m3 | thermal conductivity ([1]; 420.1 K, w1 = 0.4): 0.549 ± 0.019 W/m/K | thermal conductivity ([1]; 424.4 K, w1 = 1): 0.137 ± 0.006 W/m/K | viscosity ([1]; 427.2 K, w1 = 1): 1.026 ± 0.028 mPa·s | mass density ([1]; 428.2 K, w1 = 1): 1060.2 ± 3 kg/m3 | mass density ([1]; 428.4 K, w1 = 0.1): 929.6 ± 1 kg/m3 | thermal conductivity ([1]; 430.1 K, w1 = 0.4): 0.568 ± 0.02 W/m/K | mass density ([1]; 431.3 K, w1 = 0.8): 1018.8 ± 2.4 kg/m3 | viscosity ([1]; 431.4 K, w1 = 0.1): 0.211 ± 0.003 mPa·s | mass density ([1]; 431.9 K, w1 = 0.2): 933.7 ± 1.1 kg/m3 | viscosity ([1]; 432.1 K, w1 = 1): 0.953 ± 0.026 mPa·s | mass density ([1]; 432.1 K, w1 = 1): 1055 ± 3 kg/m3 | mass density ([1]; 432.6 K, w1 = 0.4): 955 ± 1.5 kg/m3 | mass density ([1]; 433.1 K, w1 = 0.05): 915.2 ± 1 kg/m3 | thermal conductivity ([1]; 433.1 K, w1 = 0.8): 0.192 ± 0.008 W/m/K | mass density ([1]; 433.9 K, w1 = 0.6): 981.1 ± 1.9 kg/m3 | viscosity ([1]; 434.3 K, w1 = 0.8): 0.542 ± 0.013 mPa·s | viscosity ([1]; 434.9 K, w1 = 0.2): 0.234 ± 0.003 mPa·s | viscosity ([1]; 435.6 K, w1 = 0.4): 0.309 ± 0.005 mPa·s | viscosity ([1]; 436.1 K, w1 = 0.05): 0.194 ± 0.003 mPa·s | viscosity ([1]; 436.9 K, w1 = 0.6): 0.399 ± 0.008 mPa·s | mass density ([1]; 444.9 K, w1 = 0.1): 912.6 ± 1.1 kg/m3 | thermal conductivity ([1]; 444.9 K, w1 = 1): 0.134 ± 0.006 W/m/K | viscosity ([1]; 447.1 K, w1 = 1): 0.802 ± 0.022 mPa·s | mass density ([1]; 447.1 K, w1 = 1): 1036 ± 3 kg/m3 | viscosity ([1]; 447.9 K, w1 = 0.1): 0.194 ± 0.003 mPa·s | mass density ([1]; 449.4 K, w1 = 0.8): 1000.5 ± 2.3 kg/m3 | mass density ([1]; 450.8 K, w1 = 0.05): 896.3 ± 1.1 kg/m3 | thermal conductivity ([1]; 451 K, w1 = 0.8): 0.188 ± 0.008 W/m/K | mass density ([1]; 452.1 K, w1 = 0.4): 932 ± 1.4 kg/m3 | viscosity ([1]; 452.4 K, w1 = 0.8): 0.438 ± 0.01 mPa·s | mass density ([1]; 452.4 K, w1 = 0.2): 912 ± 1.2 kg/m3 | mass density ([1]; 453.4 K, w1 = 0.6): 959.5 ± 1.9 kg/m3 | viscosity ([1]; 453.8 K, w1 = 0.05): 0.177 ± 0.002 mPa·s | viscosity ([1]; 455.1 K, w1 = 0.4): 0.263 ± 0.004 mPa·s | viscosity ([1]; 455.4 K, w1 = 0.2): 0.206 ± 0.003 mPa·s | viscosity ([1]; 456.4 K, w1 = 0.6): 0.334 ± 0.006 mPa·s | thermal conductivity ([1]; 465.1 K, w1 = 1): 0.132 ± 0.006 W/m/K

O=C(O)c1ccccc1 [benzoic acid]
viscosity ([2]; 400.3 K): 1.372 ± 0.037 mPa·s | mass density ([2]; 401.3 K): 1089.5 ± 3 kg/m3 | thermal conductivity ([2]; 406.8 K): 0.139 ± 0.006 W/m/K | viscosity ([2]; 409.3 K): 1.238 ± 0.032 mPa·s | mass density ([2]; 410.3 K): 1080.2 ± 3.2 kg/m3 | viscosity ([2]; 418.3 K): 1.117 ± 0.03 mPa·s | mass density ([2]; 419.3 K): 1069.8 ± 3 kg/m3 | thermal conductivity ([2]; 424.4 K): 0.137 ± 0.006 W/m/K | viscosity ([2]; 427.2 K): 1.026 ± 0.028 mPa·s | mass density ([2]; 428.2 K): 1060.2 ± 3 kg/m3 | viscosity ([2]; 432.1 K): 0.953 ± 0.026 mPa·s | mass density ([2]; 432.1 K): 1055 ± 3 kg/m3 | thermal conductivity ([2]; 444.9 K): 0.134 ± 0.006 W/m/K | viscosity ([2]; 447.1 K): 0.802 ± 0.022 mPa·s | mass density ([2]; 447.1 K): 1036 ± 3 kg/m3 | thermal conductivity ([2]; 465.1 K): 0.132 ± 0.006 W/m/K
